Source: patent US6316405A, “Cyclosporin a conjugates and uses therefor” (Wisconsin Alumni Research Foundation, priority 1999, dated 2001)
Entries after “also recorded” stand apart in the source; their conditions may differ. Peptide text beside a SMILES is read from it. * marks the point of attachment. X1 = CCC(C)(C)C(=O)C(=O)N1CCCC[C@H]1C(=O)O[C@H](CCc1ccccc1)c1cccc(OCC(=O)*)c1; NHTrityl = c1ccc(C(N*)(c2ccccc2)c2ccccc2)cc1; Acetyl(pyridin-2-yl) = O=C(Cc1ccccn1)*; Fmoc = O=C(OCC1c2ccccc2-c2ccccc21)*; ClZ = O=C(OCc1ccccc1Cl)*; Alloc = C=CCOC(=O)*

Assays:
[1] = Solubility of Aβ-binding peptides in organic solvents; settings: for solubility of the peptide (in words): running text, organic solvents
Method: After cleavage from the resin with TFA, the solubles of the crude peptides were determined (ca. 3-5 mg/0.5-1.0 ml) in various solvents (LiCl/DMF, DMF or NMP, and/or mixtures with DCM/MeOH/CH3 CN/dioxane).
^a conditions: 3-5 mg peptide/0.5-1.0 mL.
^b conditions tested; NMP, DMF, DMF/LiCl, THF, CH3 CN, DCM, MeOH,

cyclophilin (Cyp) = settings: cited from earlier work
nerve regeneration = settings: NGF must be present; Lyons et al. 1994, Steine et al. 1997; cited from earlier work
[2] = Solubility of conjugates in organic solvents; settings: running text
Aβ peptide = Aβ peptide (Homo sapiens, UniProt P05067); settings: Tjernberg et al. 1996; cited from earlier work
[3] = Table 11.3, 3-5 mg peptide/0.5-1.0 mL, all free lysines are TFA salts
[4] = Table 11.1, crude peptides for CsA analog coupling, ca. 3-5 mg/0.5-1.0 ml
[5] = Table 11.1, ca. 3-5 mg/0.5-1.0 ml

Aβ peptide, sequence (P05067 672-713 limits assumed): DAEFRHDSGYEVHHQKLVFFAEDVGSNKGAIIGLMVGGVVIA

## CC(C)C[C@H](NC(=O)[C@H](CCCCN)NC(=O)OCC1c2ccccc2-c2ccccc21)C(=O)N[C@H](C(=O)N[C@@H](Cc1ccccc1)C(=O)N[C@@H](Cc1ccccc1)C(N)=O)C(C)C [11.37, Fmoc-KLVFF-NH2]
[1]; [3]
  Solubility (solvent in which the peptide is soluble): DMF
[1]
  solubility of the peptide (in words): completely soluble in DMF

## CC(C)C[C@H](NC(=O)[C@H](CCCCNC(=O)OCc1ccccc1Cl)NC(=O)OCC1c2ccccc2-c2ccccc21)C(=O)N[C@H](C(=O)N[C@@H](Cc1ccccc1)C(=O)N[C@@H](Cc1ccccc1)C(=O)O)C(C)C [11.26, Fmoc-K(2Cl-Cbz)LVFF-OH]
[1]; [4]
  Solubility (solvent in which the peptide is soluble): DMF
[1]
  solubility of the peptide (in words): completely soluble in DMF after a short period of vortexing

## C=CCOC(=O)NCCCC[C@H](NC(=O)OCC1c2ccccc2-c2ccccc21)C(=O)N[C@@H](CC(C)C)C(=O)N[C@H](C(=O)N[C@@H](Cc1ccccc1)C(=O)N[C@@H](Cc1ccccc1)C(=O)N[C@@H](CCCCN)C(N)=O)C(C)C [11.36, Fmoc-K(Alloc)LVFFK-NH2] (Fmoc-K(Alloc)LVFFK-NH2)
[1]; [3]
  Solubility (solvent in which the peptide is soluble): LiCl/DMF
[1]
  solubility of the peptide (in words): completely soluble in LiCl/DMF

## C=CCOC(=O)NCCCC[C@H](NC(=O)Cc1ccccn1)C(=O)N[C@@H](CC(C)C)C(=O)N[C@H](C(=O)N[C@@H](Cc1ccccc1)C(=O)N[C@@H](Cc1ccccc1)C(=O)N[C@@H](CCCCN)C(N)=O)C(C)C [11.40, Pyiidylacetate-K(Alloc)LVFFK-NH2] ({Acetyl(pyridin-2-yl)}-K(Alloc)LVFFK-NH2)
[1]; [3]
  Solubility (solvent in which the peptide is soluble): DMF
[1]
  solubility of the peptide (in words): completely soluble in DMF as the double TFA salts

## [MeLeu(3-OH)^1, MeAla^4,6 ]-CsA
Cyclophilin (Cyp)
  binding to cyclophilin (in words): retains tight-binding to cyclophilin

## CC(=O)N[C@@H](CCCCNC(=O)OCc1ccccc1Cl)C(=O)N[C@@H](CC(C)C)C(=O)N[C@H](C(=O)N[C@@H](Cc1ccccc1)C(=O)N[C@@H](Cc1ccccc1)C(=O)O)C(C)C [11.27, Ac-K(2Cl-Cbz)LVFF-OH]
[1]; [4]
  Solubility (solvent in which the peptide is soluble): DMF
[1]
  solubility of the peptide (in words): soluble in DMF but requires a longer vortexing period
[1]; listed as Ac-K(2Cl-Cbz)LVFF-OH
  solubility of the peptide (in words): increased solubility in DMF

## C=CC[C@@H]1/C=C(\C)C[C@H](C)C[C@H](OC)[C@H]2O[C@@](O)(C(=O)C(=O)N3CCCC[C@H]3C(=O)O[C@H](/C(C)=C/[C@@H]3CC[C@@H](O)[C@H](OC)C3)[C@H](C)[C@@H](O)CC1=O)[C@H](C)C[C@@H]2OC [FK506]
Nerve regeneration
  significant neurotrophic activity at concentrations as low as: 1 pM
Cyclophilin (Cyp)
  binding to cyclophilin (in words): does not bind to Cyp

## CC(=O)N[C@@H](CCC(=O)NC(c1ccccc1)(c1ccccc1)c1ccccc1)C(=O)N[C@@H](CCCCNC(=O)OCc1ccccc1Cl)C(=O)N[C@@H](CC(C)C)C(=O)N[C@H](C(=O)N[C@@H](Cc1ccccc1)C(=O)N[C@@H](Cc1ccccc1)C(=O)O)C(C)C [11.24, Ac-Q(Trt)K(2Cl-Cbz)LVFF-OH] (Ac-E(NHTrityl)K(ClZ)LVFF-OH)
[1]; [5]
  Solubility grade in LiCl/DMF or LiCl/NMP: medium
[1]
  solubility of the peptide (in words): no improvement in solubility is observed

## CC(=O)N[C@@H](CCC(=O)O)C(=O)N[C@@H](CCCCNC(=O)OCc1ccccc1Cl)C(=O)N[C@@H](CC(C)C)C(=O)N[C@H](C(=O)N[C@@H](Cc1ccccc1)C(=O)N[C@@H](Cc1ccccc1)C(N)=O)C(C)C [11.29, Ac-EK(2Cl-Cbz)LVFF-NH2] (Ac-EK(ClZ)LVFF-NH2)
[1]; [4]
  Solubility (solvent in which the peptide is soluble): LiCl/DMF
[1]
  solubility of the peptide (in words): completely soluble only in LiCl/DMF
[1]; listed as Ac-EK(2Cl-Cbz)LVFF-NH2
  solubility of the peptide (in words): increased solubility in DMF

## CC(C)C[C@H](NC(=O)[C@H](CCCCNC(=O)OCc1ccccc1Cl)NC(=O)[C@H](CCC(=O)NC(c1ccccc1)(c1ccccc1)c1ccccc1)NC(=O)OCC1c2ccccc2-c2ccccc21)C(=O)N[C@H](C(=O)N[C@@H](Cc1ccccc1)C(=O)N[C@@H](Cc1ccccc1)C(=O)O)C(C)C [11.25, Fmoc-Q(Trt)K(2Cl-Cbz)LVFF-OH] (Fmoc-E(NHTrityl)K(ClZ)LVFF-OH)
[1]; [4]
  Solubility (solvent in which the peptide is soluble): Hot NMP
[1]
  solubility of the peptide (in words): soluble in only hot NMP and remained cloudy in LiCl/DMF

## CC(=O)N[C@@H](CCC(N)=O)C(=O)N[C@@H](CCCCNC(=O)OCc1ccccc1Cl)C(=O)N[C@@H](CC(C)C)C(=O)N[C@H](C(=O)N[C@@H](Cc1ccccc1)C(=O)N[C@@H](Cc1ccccc1)C(=O)O)C(C)C [11.23, Ac-QK(2Cl-Cbz)LVFF-OH]
[1]; [5]
  Solubility grade in LiCl/DMF or LiCl/NMP: medium
[1]
  solubility of the peptide (in words): poorly soluble in all solvents including LiCl/DMF; also recorded: sparingly soluble in LiCl/DMF

## C=CCOC(=O)NCCCC[C@H](NC(=O)OCC1c2ccccc2-c2ccccc21)C(=O)N[C@@H](CC(C)C)C(=O)N[C@H](C(=O)N[C@@H](Cc1ccccc1)C(=O)N[C@@H](Cc1ccccc1)C(=O)N[C@@H](CCCCNC(=O)COc1cccc([C@@H](CCc2ccccc2)OC(=O)[C@@H]2CCCCN2C(=O)C(=O)C(C)(C)CC)c1)C(N)=O)C(C)C [11.41] (Fmoc-K(Alloc)LVFFK(X1)-NH2)
[2]
  solubility of the conjugate (in words): not completely soluble in DCM, DCM/MeOH, or MeOH

## C=CCOC(=O)NCCCC[C@H](NC(=O)[C@H](CCCCN)NC(=O)OCC1c2ccccc2-c2ccccc21)C(=O)N[C@@H](CC(C)C)C(=O)N[C@H](C(=O)N[C@@H](Cc1ccccc1)C(=O)N[C@@H](Cc1ccccc1)C(N)=O)C(C)C [11.35, Fmoc-KK(Alloc)LVFF-NH2] (Fmoc-KK(Alloc)LVFF-NH2)
[1]; [3]
  Solubility grade in LiCl/DMF or LiCl/NMP: medium
[1]
  solubility of the peptide (in words): insoluble in DMF/LiCl

## CC(C)C[C@H](NC(=O)[C@H](CCCCNC(=O)OCc1ccccc1Cl)NC(=O)[C@H](CCC(=O)O)NC(=O)OCC1c2ccccc2-c2ccccc21)C(=O)N[C@H](C(=O)N[C@@H](Cc1ccccc1)C(=O)N[C@@H](Cc1ccccc1)C(N)=O)C(C)C [11.28, Fmoc-EK(2Cl-Cbz)LVFF-NH2] (Fmoc-EK(ClZ)LVFF-NH2)
[1]; [4]
  Solubility (solvent in which the peptide is soluble): DMF
[1]
  solubility of the peptide (in words): soluble in neat DMF without added LiCl

## CC(C)C[C@H](NC(=O)[C@H](CCCCN)NC(=O)Cc1ccccn1)C(=O)N[C@H](C(=O)N[C@@H](Cc1ccccc1)C(=O)N[C@@H](Cc1ccccc1)C(N)=O)C(C)C [11.39, Pyridylacetate-KLVFF-NH2]
[1]; [3]
  Solubility (solvent in which the peptide is soluble): DMF
[1]
  solubility of the peptide (in words): completely soluble in DMF as the double TFA salts

## Ac-QKLVFF-NH2
Aβ peptide
  fibril formation (in words): binds to and inhibits fibril formation

## C=CCOC(=O)NCCCC[C@H](NC(=O)Cc1ccccn1)C(=O)N[C@@H](CC(C)C)C(=O)N[C@H](C(=O)N[C@@H](Cc1ccccc1)C(=O)N[C@@H](Cc1ccccc1)C(=O)N[C@@H](CCCCNC(=O)COc1cccc([C@@H](CCc2ccccc2)OC(=O)[C@@H]2CCCCN2C(=O)C(=O)C(C)(C)CC)c1)C(N)=O)C(C)C [10.9, Pyridyl acetyl-K(alloc)LVFFK-NH2 /FKBP inhibitor conjugate] ({Acetyl(pyridin-2-yl)}-K(Alloc)LVFFK(X1)-NH2)
[2]
  solubility of the conjugate (in words): methanol soluble salt
